Data from PMC5237709 (Acta Pharmaceutica Sinica. B, 2016).

What was measured:
M-Hsp90 = M-Hsp90 (Saccharomyces cerevisiae, UniProt P02829); test: Fluorescence quenching titration of middle domain of Hsp90; type: binding, Yeast; settings: M-Hsp90 (272–617)
N-Hsp90 = N-Hsp90 (Saccharomyces cerevisiae, UniProt P02829); test: Fluorescence quenching titration of N-terminal domain of Hsp90; type: binding, Yeast; settings: N-Hsp90 (1–236)
Hsp90 ATPase = Hsp90 ATPase (Saccharomyces cerevisiae, UniProt P02829); test: Hsp90 ATPase activity assay; type: biochemical, Yeast
C-Hsp90 = molecular target: T1, C-Hsp90 (Saccharomyces cerevisiae, UniProt P02829); test: Fluorescence quenching titration of C-terminal domain of Hsp90; type: binding, Yeast; settings: C-Hsp90 (629–732)
T1 sequence (P02829 608-709): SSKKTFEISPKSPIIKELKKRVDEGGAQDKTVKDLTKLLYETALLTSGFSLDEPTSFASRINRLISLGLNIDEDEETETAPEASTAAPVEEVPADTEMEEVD

Chain of N-Hsp90 (P02829 1-223): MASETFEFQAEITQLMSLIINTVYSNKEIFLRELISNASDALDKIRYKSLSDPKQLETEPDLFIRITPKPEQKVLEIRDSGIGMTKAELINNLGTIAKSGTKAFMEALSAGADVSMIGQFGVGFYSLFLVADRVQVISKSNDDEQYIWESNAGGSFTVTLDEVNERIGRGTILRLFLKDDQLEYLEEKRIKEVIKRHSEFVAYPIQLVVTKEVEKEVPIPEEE
Chain of M-Hsp90 (P02829 252-596): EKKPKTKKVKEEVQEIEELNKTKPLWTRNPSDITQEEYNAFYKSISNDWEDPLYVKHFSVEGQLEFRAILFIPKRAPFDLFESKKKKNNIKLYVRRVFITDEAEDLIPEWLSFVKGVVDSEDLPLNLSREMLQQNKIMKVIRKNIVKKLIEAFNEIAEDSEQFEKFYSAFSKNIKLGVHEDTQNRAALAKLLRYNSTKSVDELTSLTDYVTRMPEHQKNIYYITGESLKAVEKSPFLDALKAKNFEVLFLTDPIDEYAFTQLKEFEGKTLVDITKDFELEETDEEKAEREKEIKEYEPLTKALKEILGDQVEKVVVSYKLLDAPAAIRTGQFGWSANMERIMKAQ
Chain of Hsp90 ATPase (P02829 whole entry, the tested form may be a part): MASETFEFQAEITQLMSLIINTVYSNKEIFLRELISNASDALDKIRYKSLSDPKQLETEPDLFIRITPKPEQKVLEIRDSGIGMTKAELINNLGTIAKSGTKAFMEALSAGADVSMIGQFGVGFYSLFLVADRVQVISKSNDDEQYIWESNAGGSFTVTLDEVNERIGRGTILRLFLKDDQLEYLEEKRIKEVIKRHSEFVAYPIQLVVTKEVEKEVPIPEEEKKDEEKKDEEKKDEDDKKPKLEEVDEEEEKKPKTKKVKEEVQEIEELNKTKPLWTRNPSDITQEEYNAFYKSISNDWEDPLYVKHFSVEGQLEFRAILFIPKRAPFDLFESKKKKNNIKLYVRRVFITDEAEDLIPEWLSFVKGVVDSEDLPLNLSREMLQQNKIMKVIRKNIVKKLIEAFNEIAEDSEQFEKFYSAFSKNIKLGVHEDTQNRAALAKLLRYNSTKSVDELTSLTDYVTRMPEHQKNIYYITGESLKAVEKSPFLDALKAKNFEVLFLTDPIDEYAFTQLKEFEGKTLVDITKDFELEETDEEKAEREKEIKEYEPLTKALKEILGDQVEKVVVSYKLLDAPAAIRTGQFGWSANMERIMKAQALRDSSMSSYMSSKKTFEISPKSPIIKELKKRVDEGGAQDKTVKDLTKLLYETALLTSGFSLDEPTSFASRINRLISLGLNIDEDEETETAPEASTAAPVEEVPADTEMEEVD

Fmax (M-Hsp90): 158.20±1.68
Fmax (N-Hsp90): 221.22±4.91
Inhibition of the ATPase activity of Hsp90 (in words) (Hsp90 ATPase): dose-dependent inhibition
Fmax (C-Hsp90): 67.91±0.63
Compound: COC1=C2C[C@@H](C)C[C@H](OC)[C@H](O)[C@@H](C)/C=C(\C)[C@H](OC(N)=O)[C@@H](OC)/C=C\C=C(/C)C(=O)NC(=CC1=O)C2=O [GA, Geldanamycin]
